Laboratory results reported in patent publication US20100227853A1, “INHIBITORS OF CYCLIC AMP PHOSPHODIESTERASES” (Trustees of Boston College, priority 2008, published 2010).
Like-named read-outs stand apart in the source and are kept apart here.

What was measured:
PDE4A1 = target: T1, PDE4A1 (Mus musculus, UniProt O89084); test: 5FOA growth assay (high throughput screen, ED50) in fission yeast strain expressing PDE4A1; assay type: cell-based; conditions: for Composite Z score, PDE4A1: high throughput 5FOA growth screen, greater than 8.53 = statistically-significant inhibitor; for EC50: OD600 0.6
T1 construct: targets used in the assays are full-length proteins (as opposed to simply the catalytic domain); expressed in transfected cells; host or cells: Schizosaccharomyces pombe, PDE gene integrated in place of cgs2
T1 sequence (O89084 1-610 isoform O89084-2): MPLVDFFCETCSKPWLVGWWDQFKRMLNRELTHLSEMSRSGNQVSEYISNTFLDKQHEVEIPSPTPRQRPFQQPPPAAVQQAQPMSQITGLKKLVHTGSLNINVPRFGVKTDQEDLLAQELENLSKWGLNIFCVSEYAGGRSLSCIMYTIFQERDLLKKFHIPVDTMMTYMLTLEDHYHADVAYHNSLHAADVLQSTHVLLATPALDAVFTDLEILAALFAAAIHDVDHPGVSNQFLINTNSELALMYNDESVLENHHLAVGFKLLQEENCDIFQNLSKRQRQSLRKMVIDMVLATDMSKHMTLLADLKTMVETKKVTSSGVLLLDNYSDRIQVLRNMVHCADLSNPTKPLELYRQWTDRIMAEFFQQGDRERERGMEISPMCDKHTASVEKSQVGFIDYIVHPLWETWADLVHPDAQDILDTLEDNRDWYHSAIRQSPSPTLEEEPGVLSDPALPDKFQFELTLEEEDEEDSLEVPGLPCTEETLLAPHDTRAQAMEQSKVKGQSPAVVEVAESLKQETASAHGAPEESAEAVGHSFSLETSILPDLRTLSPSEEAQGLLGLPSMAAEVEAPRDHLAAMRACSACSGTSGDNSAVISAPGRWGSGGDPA
How it was run: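 Fission yeast strains carrying mouse PDE4A1 or PDE4B3 and an fbp1-ura4 reporter were pregrown in EMM with 0.5–2.5 mM cAMP, then seeded at 0.5–4×10^5 cells/ml in 5FOA medium with compound. Growth was read as OD600 after 48 h at 30° C; composite Z scores were derived.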

PDE7A = PDE7A (Homo sapiens, UniProt Q13946); test: 5FOA growth assay in fission yeast strain expressing PDE7A; assay type: cell-based; set-up: targets used in the assays are full-length proteins (as opposed to simply the catalytic domain); expressed in transfected cells; host or cells: Schizosaccharomyces pombe, PDE gene integrated in place of cgs2; conditions: for Composite Z score, PDE7A: high throughput 5FOA growth screen; for EC50: OD600 0.6, read-out: ED50 for 5FOA growth assays, PDE7A
PDE7A, sequence (Q13946 whole entry, the tested form may be a part): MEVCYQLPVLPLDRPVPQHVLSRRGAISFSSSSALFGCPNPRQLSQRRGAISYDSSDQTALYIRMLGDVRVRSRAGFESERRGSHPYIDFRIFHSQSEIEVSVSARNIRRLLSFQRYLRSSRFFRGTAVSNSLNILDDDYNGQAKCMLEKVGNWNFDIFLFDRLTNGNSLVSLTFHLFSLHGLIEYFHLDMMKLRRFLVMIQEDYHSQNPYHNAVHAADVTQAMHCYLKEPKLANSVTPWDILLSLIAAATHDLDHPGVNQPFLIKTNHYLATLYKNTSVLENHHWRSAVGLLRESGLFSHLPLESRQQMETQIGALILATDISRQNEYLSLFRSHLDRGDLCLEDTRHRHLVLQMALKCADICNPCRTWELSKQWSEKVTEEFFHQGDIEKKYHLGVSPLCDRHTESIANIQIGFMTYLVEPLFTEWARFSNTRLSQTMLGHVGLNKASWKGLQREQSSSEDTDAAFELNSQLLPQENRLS
How it was run: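 Fission yeast carrying an fbp1-ura4 reporter were pregrown to exponential phase at 30 °C in EMM with 0–2.5 mM cAMP (or 0.5/1.0 mM cGMP), then moved into 5FOA medium with 100 nl pinned compound (10 mM stocks). Growth was read as OD600 after 48 h at 30 °C and scored as composite Z scores.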

[1] = value marked (m), read-out: ED50 for 5FOA growth assays, PDE4A1 (m)

SMILES	Composite Z score, PDE4A1 (PDE4A1)	Composite Z score, PDE7A (PDE7A)	also measured
CCOC(=O)c1sc2nc(C)nc(N3CCC(C)CC3)c2c1C [Compound 2007D06]	−0.396	−0.759	–
Cc1sc2ncnc(Nc3ccccc3)c2c1C [BC64]	24.925	55.035	EC50 (PDE4A1; [1]): 20 µM; EC50 (PDE7A): > 200 µM
Cc1c(C(=O)Nc2ccc(F)cc2F)sc2ncnc(N(C)c3ccccc3)c12 [Compound 58-9]	25.972	123.57	–
CCCCn1c2ccccc2c2nc3ccccc3nc21 [2013, I20]	–	–	1 Assay (20 uM) 4A1 (PDE4A1; PDE 4A1): 80.55 ND ND ND ND; 1 Assay (20 uM) 7A (PDE7A; PDE 7A): −0.84 ND ND ND ND
Cc1c(C(=O)Nc2ccc(F)cc2F)sc2ncnc(N3CCC(C)CC3)c12 [BC58]	34.335	24.881	–
CC(C)Cn1c2ccc(Br)cc2c2nc3ccccc3nc21 [2015, L04]	–	–	1 Assay (20 uM) 4A1 (PDE4A1; PDE 4A1): 13.51 ND ND ND ND; 1 Assay (20 uM) 7A (PDE7A; PDE 7A): −0.79 ND ND ND ND
CNc1nc(=S)[nH]c2sc3c(c12)CCCC3 [2054 E08]	−1.088	−0.995	–
CCC1CCc2c(sc3ncnc(N4CCOCC4)c23)C1 (stereo not shown) [BC33]	50.594	−0.794	EC50 (PDE4A1; [1]): 23 µM; EC50 (PDE4A1; value marked (r), read-out: ED50 for 5FOA growth assays, PDE4A1 (r)): 28 µM; EC50 (PDE7A): > 200 µM
c1ccc(CCn2c3ccccc3c3nc4ccccc4nc32)cc1 [2019, G03]	–	–	1 Assay (20 uM) 4A1 (PDE4A1; PDE 4A1): 36.37 ND ND ND ND; 1 Assay (20 uM) 7A (PDE7A; PDE 7A): 4.47 ND ND ND ND
CC1CC(=O)N(c2ncnc3sc4c(c23)CCCC4)N1 (stereo not shown) [2054 E16]	0.2389	−0.737	–
COC(=O)C1=C(C)N(c2ccccc2Cl)C(=O)/C1=C\c1cccs1 [Compound 27]	–	–	2 Assay (2 uM), 4A1 (PDE4A1): 17.41; 2 Assay (2 uM), 7A (PDE7A): 5.07; 1 Assay (20 uM) 7A (PDE7A): 2.34
COc1ccc2c(c1)[C@@]1(C)CCC[C@](C)(CO)C1CC2 (stereo partly shown) [Compound 2067M03]	–	–	2 Assay (2 uM), 4A1 (PDE4A1; PDE 4A1): 6.63; 1 Assay (20 uM) 4A1 (PDE4A1; PDE 4A1): 11567; 2 Assay (2 uM), 7A (PDE7A; PDE 7A): 8.65; 1 Assay (20 uM) 7A (PDE7A; PDE 7A): 104.31
O=C(/C=C/c1ccccc1)Nc1ncnc2sc3c(c12)CCC3 [Compound 2008K11]	−1.395	0.9074	–
c1csc(CCNc2ncnc3sc4c(c23)CCC4)c1 [Compound 2005M12]	−1.628	−0.398	–
CCOC(=O)c1sc2nc(C)nc(N(C)Cc3ccccc3)c2c1C [Compound 2007L04]	0.6949	0.2354	–
COC(=O)C1=C(C)N(c2ccccc2)/C(=C/c2cccs2)C1=O [2008, K19]	–	–	1 Assay (20 uM) 7A (PDE7A): 2.43 ND ND ND ND
Cc1ccc2c(c1)CCC1CC(=O)CC[C@]21C (stereo partly shown) [Compound 2158J12]	–	–	2 Assay (2 uM), 4A1 (PDE4A1; PDE 4A1): 2.18; 1 Assay (20 uM) 4A1 (PDE4A1; PDE 4A1): 81.97; 2 Assay (2 uM), 7A (PDE7A; PDE 7A): 29.01; 1 Assay (20 uM) 7A (PDE7A; PDE 7A): 74.45
COC(=O)C1=C(C)N(C2CCCCC2)C(=O)/C1=C\c1cccs1 [Compound 22]	–	–	2 Assay (2 uM), 4A1 (PDE4A1): 27.01; 2 Assay (2 uM), 7A (PDE7A): 57.22; 1 Assay (20 uM) 7A (PDE7A): 132.82
CCc1ccc2c(c1)c1nc3ccccc3nc1n2CC [2015, P06]	–	–	1 Assay (20 uM) 4A1 (PDE4A1; PDE 4A1): 23.52 ND ND ND ND; 1 Assay (20 uM) 7A (PDE7A; PDE 7A): 1.07 ND ND ND ND
Cc1nc(NCCc2ccccc2)c2c3c(sc2n1)CCCC3 [Compound 2008G09]	0.1429	0.03	–
CCN(CC)c1ncnc2sc3c(c12)CCCC3 [BC44]	22.267	177.31	–
N#Cc1sc2sc(C#N)c(-c3ccco3)c2c1N [Compound 30]	–	–	2 Assay (2 uM), 4A1 (PDE4A1): 4.56
CCCCN(CC)C(=O)c1sc2ncnc(N3CCN(c4ccc(OC)cc4)CC3)c2c1C [Compound 2007H06]	0.0978	1.5462	–
COC(=O)C1/C(=C/c2cccc(OC)c2O)C(=O)N(c2ccccc2F)C1C (stereo not shown) [2008, C21]	–	–	1 Assay (20 uM) 7A (PDE7A): −0.08 ND ND ND ND
Cc1ccc2c(c1)c1nc3ccccc3nc1n2C(C)C [Compound 41]	–	–	1 Assay (20 uM) 4A1 (PDE4A1; PDE 4A1): 106.90; 1 Assay (20 uM) 7A (PDE7A; PDE 7A): 0.31
COC(=O)C1=C(C)N(c2ccc(C(C)C)cc2)C(=O)/C1=C\c1ccco1 [2008, 019]	–	–	1 Assay (20 uM) 7A (PDE7A): 2.78 ND ND ND ND

The next lines start with results.

Composite Z score, PDE4A1 (PDE4A1)	Composite Z score, PDE7A (PDE7A)	SMILES	also measured
1.1862	−0.445	c1nc(NCCCN2CCOCC2)c2c3c(sc2n1)CCCC3 [Compound 2051N22]	–
3.7863	0.7038	CCNc1nc(SCC(=O)OCC)nc2sc3c(c12)CCC(C)C3 (stereo not shown) [Compound 2053H16]	–
14.925	1.3549	Cc1c(C(=O)NCCC2CCCCC2)sc2ncnc(N3CCCCC3C)c12 (stereo not shown) [Compound 2040H10]	–
2.4965	−0.346	OCCNc1ncnc2sc3c(c12)CCCC3 [Compound 2051H22]	–
3.5005	−0.598	Cc1c(C(=O)NCCC(C)C)sc2ncnc(N3CCOCC3)c12 [Compound 2040F13]	–
2.3863	1.181	CCNc1nc(SCc2ccc(Cl)cc2)nc2sc3c(c12)CCN(C)C3 [Compound 2054P05]	–
8.6742	0.6002	CCN(CC)c1nc(C)nc2sc(C(=O)Nc3cc(Cl)ccc3OC)c(C)c12 [Compound 2040L12]	–
12.024	0.7021	Cc1nc(N2CCC(C)CC2)c2c(C)c(C(=O)N3CCN(c4ccc(F)cc4)CC3)sc2n1 [Compound 2040N10]	–
34.225	30.877	O=C(Nc1ncnc2sc3c(c12)CCCCC3)c1ccc(F)cc1 [Compound 2012F09]	–
3.1355	−0.593	CCOC(CNc1nc(C)nc2sc3c(c12)CCCC3)OCC [Compound 2040D04]	–
3.8961	1.5898	CCOC(=O)c1sc2nc(Cc3ccccc3)nc(NCCC3CCCCC3)c2c1C [Compound 2040F07]	–
1.67	−0.684	Cc1cc(C)c(C)c(S(=O)(=O)N2CCN(c3ncnc4sc5c(c34)CCCC5)CC2)c1C [Compound 2012L13]	–
5.2983	0.7201	COc1ccc(NC(=O)c2sc3nc(C)nc(N(C)c4ccc(C(C)C)cc4)c3c2C)c(OC)c1 [Compound 2041I04]	–
7.0857	−0.165	CCN(CC)c1ncnc2sc(C(=O)N(C)C3CCCCC3)c(C)c12 [Compound 2040J12]	–
11.225	−1.481	Cc1nc(N2CCCCC2)c2c(C)c(C(=O)Nc3cccc(C(F)(F)F)c3)sc2n1 [Compound 2040F10]	–
−0.629	−1.371	Cc1c(C(=O)N(C)Cc2ccccc2)sc2ncnc(N3CCN(c4ccccc4)CC3)c12 [Compound 2041G21]	–
0.407	−0.757	CC(C)CC(Nc1ncnc2sc3c(c12)CCC3)C(=O)O (stereo not shown) [Compound 2012H20]	–
12.157	1.3653	CCOC(=O)c1ccccc1NC(=O)c1sc2nc(C)nc(N(CC)CC)c2c1C [Compound 2040P12]	–
32.257	26.421	COc1ccc(CCNc2ncnc3sc4c(c23)CCCC4)cc1 [Compound 2012B19]	–
19.619	0.4852	COc1cccc(NC(=O)c2sc3ncnc(N4CCc5ccccc5C4)c3c2C)c1 [Compound 2041K21]	–
11.659	−1.377	CCC(C)NC(=O)c1sc2nc(C)nc(N(C)c3ccc(C(C)C)cc3)c2c1C (stereo not shown) [Compound 2041K04]	–
3.0133	0.6002	COc1cc(OC)c(NC(=O)c2sc3ncnc(N4CCCCC4C)c3c2C)cc1Cl (stereo not shown) [Compound 2040J10]	–
